From patent US20220112479A1, “COMPOUNDS STABILIZING AMYLASES IN LIQUIDS” (BASF SE, priority 2018, published 2022)

Assays:
Assay type in all cases: biochemical
[1] = tested on: Amy3=Stainzyme Plus L (12L); experiment: amylase storage stability in liquid formulation (pNP release from Ethyliden-blocked-pNPG7); details: base formulation II., 1.5 wt % component (a), storage at 37° C.
Procedure: (§1) The storage stability of amylase was assessed at 37° C.
Base test formulations were manufactured by making base formulations I to V by mixing the components according to Table 1.
Amylases used: Amy1=Stainzyme, Amy2=Amplify, Amy3=Stainzyme Plus L (12L)
The respective component (a) or comparative compound was added, if applicable, to the respective base formulation in amounts as indicated in Table 1.
The amount of amylase as provided in Table 1 refers to active protein.
Water was added to accomplish the balance to 100.
(§2) Amylase activity at certain points in time as indicated in Table 2 was measured quantitatively by the release of the chromophore para-nitrophenol (pNP) from the substrate (Ethyliden-blocked-pNPG7, Roche Applied Science 10880078103). The alpha-amylase degrades the substrate into smaller molecules and α-glucosidase (Roche Applied Science 11626329103), which is present in excess compared to the amylase, process these smaller products until pNP is released; the release of pNP, measured via an increase of absorption at 405 nm, is directly proportional to the amylase activity of the sample. Amylase standard: Termamyl 120 L (Sigma 3403).
(§3) The amylolytic activity values provided were calculated referring to the value determined in the reference formulation at the time 0.
(§4) The nomenclature of formulations is as follows: the Roman number before the full stop characterizes the base formulation, the Arabian number the type of compound (A.# compound according to invention (component (a)); B.# comparative compound).

[2] = tested on: Amylase; experiment: amylase storage stability in liquid laundry formulation (pNP release from Ethyliden-blocked-pNPG7); parameters: key: % of activity in reference formulation at time 0; details: 2.5 wt % component (a), storage at 37° C.
Procedure: as §1
Base test formulations were manufactured by making base formulations VI to IX by mixing the components according to Table 4.
as §2, with “Table 5” for “Table 2”
as §3, §4

[3] = target: T1, Savinase Ultra 16.0L (Lederbergia lenta, UniProt P29600); experiment: protease storage stability in liquid formulation (Suc-AAPF-pNA substrate); details: storage at 37° C.
T1 construct: purchased Sigma-Aldrich
T1 sequence (P29600 1-269): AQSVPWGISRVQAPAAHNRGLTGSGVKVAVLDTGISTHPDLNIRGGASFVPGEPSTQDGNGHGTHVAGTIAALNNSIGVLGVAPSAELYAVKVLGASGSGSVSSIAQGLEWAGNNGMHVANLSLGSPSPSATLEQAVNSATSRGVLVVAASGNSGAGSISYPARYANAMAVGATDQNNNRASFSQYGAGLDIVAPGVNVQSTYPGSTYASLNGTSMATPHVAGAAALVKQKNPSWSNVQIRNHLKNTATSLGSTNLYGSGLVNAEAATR
How it was run: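 Savinase in liquid base formulations containing test salt, comparative compound or diethylene glycol; amounts given as active protein. Residual activity at set storage times measured with Suc-AAPF-pNA via pNA release at OD405, 20 °C. Activity expressed relative to reference formulation at time 0.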

Q: How did the “amylase activity, referring to reference formulation at time 0” value (shortened to “amylase activity, referring”) ([1]; 3 d) turn out when CCCOC(=O)CC(O)(CC(=O)OCCC)C(=O)OCCC [A.2, Tripropylcitrate] was run?
A: Its value is 100.

Q: What about the “amylase activity, referring” value ([1]; 7 d) of the same molecule?
A: The value was 97.

Q: What about the “amylase activity, referring” value ([1]; 14 d) of the same molecule?
A: The value was 93.

Q: What about the “amylase activity, referring” value ([1]; 21 d) of the same molecule?
A: Its value is 87.

Q: What about the “amylase activity, referring” value ([1]; 28 d) of the same molecule?
A: Its value is 83.

Q: And the “amylase activity, referring” value ([1]; 42 d)?
A: Its value is 69.

Q: What about the “amylase activity, referring” value ([1]; T0) of the same molecule?
A: Its value is 102.

Q: And the “amylase activity, referring” value ([2]; laundry base formulation IX. (2.5 DTPA), 3 d)?
A: Its value is 93.

Q: And the “amylase activity, referring” value ([2]; laundry base formulation IX. (2.5 DTPA), 7 d)?
A: The value was 85.

Q: And the “amylase activity, referring” value ([2]; laundry base formulation IX. (2.5 DTPA), 14 d)?
A: Its value is 81.

Q: What about the “amylase activity, referring” value ([2]; laundry base formulation IX. (2.5 DTPA), 21 d) of the same molecule?
A: The value was 72.

Q: What about the “amylase activity, referring” value ([2]; laundry base formulation IX. (2.5 DTPA), 28 d) of the same molecule?
A: The value was 63.

Q: And the “amylase activity, referring” value ([2]; laundry base formulation IX. (2.5 DTPA), T0)?
A: The value was 100.

Q: And the “amylase activity, referring” value ([2]; laundry base formulation VI. (2.0 EDTA), 3 d)?
A: Its value is 94.

Q: And the “amylase activity, referring” value ([2]; laundry base formulation VI. (2.0 EDTA), 7 d)?
A: The value was 86.

Q: And the “amylase activity, referring” value ([2]; laundry base formulation VI. (2.0 EDTA), 14 d)?
A: Its value is 80.

Q: And the “amylase activity, referring” value ([2]; laundry base formulation VI. (2.0 EDTA), 21 d)?
A: The value was 74.

Q: What about the “amylase activity, referring” value ([2]; laundry base formulation VI. (2.0 EDTA), 28 d) of the same molecule?
A: Its value is 65.

Q: What about the “amylase activity, referring” value ([2]; laundry base formulation VI. (2.0 EDTA), T0) of the same molecule?
A: The value was 101.

Q: What about the “amylase activity, referring” value ([2]; laundry base formulation VIII. (2.5 DTPA, no Savinase), 3 d) of the same molecule?
A: Its value is 94.

Q: What about the “amylase activity, referring” value ([2]; laundry base formulation VIII. (2.5 DTPA, no Savinase), 7 d) of the same molecule?
A: The value was 87.

Q: What about the “amylase activity, referring” value ([2]; laundry base formulation VIII. (2.5 DTPA, no Savinase), 14 d) of the same molecule?
A: Its value is 83.

Q: And the “amylase activity, referring” value ([2]; laundry base formulation VIII. (2.5 DTPA, no Savinase), 21 d)?
A: Its value is 77.

Q: What about the “amylase activity, referring” value ([2]; laundry base formulation VIII. (2.5 DTPA, no Savinase), 28 d) of the same molecule?
A: The value was 69.

Q: What about the “amylase activity, referring” value ([2]; laundry base formulation VIII. (2.5 DTPA, no Savinase), T0) of the same molecule?
A: Its value is 99.

Q: And the “protease activity, referring to reference formulation at time 0” value (shortened to “protease activity, referring”) ([3]; base formulation I., 1.5 wt % component (a), 3 d)?
A: The value was 100.

Q: And the “protease activity, referring” value ([3]; base formulation I., 1.5 wt % component (a), 7 d)?
A: The value was 95.

Q: What about the “protease activity, referring” value ([3]; base formulation I., 1.5 wt % component (a), 14 d) of the same molecule?
A: Its value is 90.

Q: What about the “protease activity, referring” value ([3]; base formulation I., 1.5 wt % component (a), 21 d) of the same molecule?
A: Its value is 85.

Q: What about the “protease activity, referring” value ([3]; base formulation I., 1.5 wt % component (a), 28 d) of the same molecule?
A: The value was 81.

Q: What about the “protease activity, referring” value ([3]; base formulation I., 1.5 wt % component (a), 42 d) of the same molecule?
A: The value was 71.

Q: What about the “protease activity, referring” value ([3]; base formulation I., 1.5 wt % component (a), T0) of the same molecule?
A: The value was 101.

Q: And the “protease activity, referring” value ([3]; base formulation II., 1.5 wt % component (a), 3 d)?
A: The value was 100.

Q: And the “protease activity, referring” value ([3]; base formulation II., 1.5 wt % component (a), 7 d)?
A: Its value is 96.

Q: What about the “protease activity, referring” value ([3]; base formulation II., 1.5 wt % component (a), 14 d) of the same molecule?
A: The value was 91.

Q: And the “protease activity, referring” value ([3]; base formulation II., 1.5 wt % component (a), 21 d)?
A: The value was 87.

Q: And the “protease activity, referring” value ([3]; base formulation II., 1.5 wt % component (a), 28 d)?
A: Its value is 83.

Q: And the “protease activity, referring” value ([3]; base formulation II., 1.5 wt % component (a), 42 d)?
A: The value was 72.

Q: And the “protease activity, referring” value ([3]; base formulation II., 1.5 wt % component (a), T0)?
A: Its value is 101.

Q: And the “protease activity, referring” value ([3]; base formulation III., 1.5 wt % component (a), 3 d)?
A: Its value is 100.

Q: What about the “protease activity, referring” value ([3]; base formulation III., 1.5 wt % component (a), 7 d) of the same molecule?
A: Its value is 95.

Q: What about the “protease activity, referring” value ([3]; base formulation III., 1.5 wt % component (a), 14 d) of the same molecule?
A: Its value is 93.

Q: And the “protease activity, referring” value ([3]; base formulation III., 1.5 wt % component (a), 21 d)?
A: The value was 88.

Q: And the “protease activity, referring” value ([3]; base formulation III., 1.5 wt % component (a), 28 d)?
A: Its value is 83.

Q: What about the “protease activity, referring” value ([3]; base formulation III., 1.5 wt % component (a), 42 d) of the same molecule?
A: The value was 73.

Q: And the “protease activity, referring” value ([3]; base formulation III., 1.5 wt % component (a), T0)?
A: Its value is 101.

Q: And the “protease activity, referring” value ([3]; base formulation V., 2.0 wt % component (a), 3 d)?
A: Its value is 95.

Q: And the “protease activity, referring” value ([3]; base formulation V., 2.0 wt % component (a), 7 d)?
A: The value was 92.

Q: And the “protease activity, referring” value ([3]; base formulation V., 2.0 wt % component (a), 14 d)?
A: Its value is 87.

Q: And the “protease activity, referring” value ([3]; base formulation V., 2.0 wt % component (a), 21 d)?
A: Its value is 82.

Q: What about the “protease activity, referring” value ([3]; base formulation V., 2.0 wt % component (a), 28 d) of the same molecule?
A: Its value is 77.

Q: What about the “protease activity, referring” value ([3]; base formulation V., 2.0 wt % component (a), 42 d) of the same molecule?
A: Its value is 70.

Q: And the “protease activity, referring” value ([3]; base formulation V., 2.0 wt % component (a), T0)?
A: Its value is 100.
